For orientation: Ki means a measure of affinity in units of concentration, obtained from inhibition or displacement.

Like-named read-outs stand apart in the source and are kept apart here.

This test has as its target T1, human V1b receptors (Homo sapiens, UniProt P47901).
T1 construct: expressed in transfected cells; preparation V1b-3H2
T1 sequence (P47901 1-424): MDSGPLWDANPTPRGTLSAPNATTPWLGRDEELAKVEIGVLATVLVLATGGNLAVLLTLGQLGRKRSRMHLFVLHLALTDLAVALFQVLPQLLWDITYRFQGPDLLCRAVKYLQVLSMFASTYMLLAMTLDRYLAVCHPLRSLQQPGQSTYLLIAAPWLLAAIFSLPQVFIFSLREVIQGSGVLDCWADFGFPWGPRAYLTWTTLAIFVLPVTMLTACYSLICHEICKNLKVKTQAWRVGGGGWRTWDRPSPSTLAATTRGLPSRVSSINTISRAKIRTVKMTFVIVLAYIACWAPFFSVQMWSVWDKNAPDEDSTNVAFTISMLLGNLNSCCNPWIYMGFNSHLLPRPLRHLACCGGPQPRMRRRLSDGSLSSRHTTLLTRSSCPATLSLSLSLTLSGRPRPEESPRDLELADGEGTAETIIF
Nature of the test: Vasopressin V1b receptor binding assay. On the procedure:
Vasopressin V1b Receptor Binding Assay:
This DMSO predilution series was diluted 1:10 with assay buffer. The substance concentration was further diluted 1:10 in the assay mixture.
The nonspecific binding was determined with 10^−6 M AVP. Determinations in triplicate were carried out.
The affinities for the human vasopressin V1b receptor were measured, and affinity constants determined, in the above assay for the inventive examples.
The affinities of the compounds (I) of the invention for the human vasopressin V1b receptor were measured in accordance with the above assays, and the affinity constants. (Ki) were determined. Table 1 below details the V1b receptor affinity of selected compounds (++ means <50 nM and + means 50-500 nM).

Setting [1] is: membranes from CHO-K1 cells with human V1b receptors, 3H-AVP displacement, read-out: V1b Ki.
Setting [2] is: read-out: Ki values, affinity for the vasopressin V1b receptor.

On to `CCOc1ccccc1C1(OC(=O)N2CCN(c3ccc(C#N)cn3)CC2)C(=O)N(S(=O)(=O)c2cccc3cccnc23)c2ccc(C#N)cc21` (stereo not drawn) [Example 11, 5-Cyano-3-(2-ethoxyphenyl)-2-oxo-1-(quinoline-8-sulfonyl)-2,3-dihydro-1H-indol-3-yl 4-(5-cyanopyridin-2-yl)piperazine-1-carboxylate], for which the Ki is less than 50 nM under setting [1] and less than 100 nM under setting [2].

In the case of `CCOc1ccccc1C1(OC(=O)N2CCN(c3ccncc3)CC2)C(=O)N(S(=O)(=O)c2ccsc2)c2ccc(C#N)cc21` (stereo not drawn) [Example 4, 5-Cyano-3-(2-ethoxyphenyl)-2-oxo-1-(thien-3-ylsulfonyl)-2,3-dihydro-1H-indol-3-yl 4-(pyridin-4-yl)piperazine-1-carboxylate], the Ki reads like this: under setting [1], less than 50 nM; under setting [2], less than 100 nM.

Take `CCOc1ccccc1C1(OC(=O)N2CCN(c3ncccn3)CC2)C(=O)N(S(=O)(=O)c2cccc3cccnc23)c2ccc(C#N)cc21` (stereo not drawn) [Example 6, 5-Cyano-3-(2-ethoxyphenyl)-2-oxo-1-(quinoline-8-sulfonyl)-2,3-dihydro-1H-indol-3-yl 4-(pyrimidin-2-yl)piperazine-1-carboxylate]: the Ki was less than 50 nM under setting [1] and less than 100 nM under setting [2].

As to `CCOc1ccccc1C1(OC(=O)N2CCN(c3cnccn3)CC2)C(=O)N(S(=O)(=O)c2cccc3cccnc23)c2ccc(C#N)cc21` (stereo not drawn) [Example 7, 5-Cyano-3-(2-ethoxyphenyl)-2-oxo-1-(quinoline-8-sulfonyl)-2,3-dihydro-1H-indol-3-yl 4-(pyrazin-2-yl)piperazine-1-carboxylate], the Ki is 50 to 500 nM under setting [1] and less than 100 nM under setting [2].

On to `CCOc1ccccc1C1(OC(=O)N2CCN(c3nccs3)CC2)C(=O)N(S(=O)(=O)c2ccsc2)c2ccc(C#N)cc21` (stereo not drawn) [Example 8, 5-Cyano-3-(2-ethoxyphenyl)-2-oxo-1-(thien-3-ylsulfonyl)-2,3-dihydro-1H-indol-3-yl 4-(thiazol-2-yl)piperazine-1-carboxylate], for which the Ki under setting [1] lay in the range of 50 to 500 nM.

On to `CCOc1ccccc1C1(OC(=O)N2CCN(c3ccncc3)CC2)C(=O)N(S(=O)(=O)c2cccc3cccnc23)c2ccc(C#N)cc21` (stereo not drawn) [Example 12, 5-Cyano-3-(2-ethoxyphenyl)-2-oxo-1-(quinoline-8-sulfonyl)-2,3-dihydro-1H-indol-3-yl 4-(pyridin-4-yl)piperazine-1-carboxylate], for which the Ki is, setting by setting: under setting [1], less than 50 nM; under setting [2], less than 100 nM.

As to `CCOc1ccccc1C1(OC(=O)N2CCN(c3ccccn3)CC2)C(=O)N(S(=O)(=O)c2cccc3cccnc23)c2ccc(C#N)cc21` (stereo not drawn) [Example 5, 5-Cyano-3-(2-ethoxyphenyl)-2-oxo-1-(quinoline-8-sulfonyl)-2,3-dihydro-1H-indol-3-yl 4-(pyridin-2-yl)piperazine-1-carboxylate], the Ki under setting [1] is less than 50 nM and the Ki under setting [2] was less than 100 nM.

On to `CCOc1ccccc1C1(NC(=O)N2CCN(c3ccc(C#N)cn3)CC2)C(=O)N(S(=O)(=O)c2ccsc2)c2ccc(C#N)cc21` (stereo not drawn) [Example 10, 4-(5-Cyanopyridin-2-yl)piperazine-1-[5-cyano-3-(2-ethoxyphenyl)-2-oxo-1-(thien-3-ylsulfonyl)-2,3-dihydro-1H-indol-3-yl]carboxamide], for which the Ki under setting [1] fell in the range of 50 to 500 nM and the Ki under setting [2] was less than 100 nM.

On to `CCOc1ccccc1C1(OC(=O)N2CCN(c3nccs3)CC2)C(=O)N(S(=O)(=O)c2cccc3cccnc23)c2ccc(C#N)cc21` (stereo not drawn) [Example 1, 5-Cyano-3-(2-ethoxyphenyl)-2-oxo-1-(quinoline-8-sulfonyl)-2,3-dihydro-1H-indol-3-yl 4-(thiazol-2-yl)piperazine-1-carboxylate], for which the Ki runs as follows: under setting [1], less than 50 nM; under setting [2], less than 100 nM.

Take `CCOc1ccccc1C1(NC(=O)N2CCN(c3ccncc3)CC2)C(=O)N(S(=O)(=O)c2cccc3cccnc23)c2ccc(C#N)cc21` (stereo not drawn) [Example 2, 4-(Pyridin-4-yl)piperazin-1-[5-cyano-3-(2-ethoxyphenyl)-2-oxo-1-(quinoline-8-sulfonyl)-2,3-dihydro-1H-indol-3-yl]carboxamide]: the Ki reads like this: under setting [1], less than 50 nM; under setting [2], less than 100 nM.

Take `CCOc1ccccc1C1(NC(=O)N2CCN(c3ccncc3)CC2)C(=O)N(S(=O)(=O)c2ccsc2)c2ccc(C#N)cc21` (stereo not drawn) [Example 3, 4-(Pyridin-4-yl)piperazin-1-[5-cyano-3-(2-ethoxyphenyl)-2-oxo-1-(thien-3-yl-sulfonyl)-2,3-dihydro-1H-indol-3-yl]carboxamide]: the Ki reads like this: under setting [1], less than 50 nM; under setting [2], less than 100 nM.

The values above are taken from US8202870B2, “Substituted oxindole derivatives, medicaments containing the latter and use thereof” (Abbott GmbH & Co. KG, priority 2005, dated 2012).
